Experiments:
NCI-H157 [1] = experiment: Antiproliferative activity against human NCI-H157 cells assessed as reduction in cell viability measured after 72 hrs by sulforhodamine B assay; type: functional, cell-based; settings: NCI-H157, 72 h
A549 [2] = experiment: Antiproliferative activity against human A549 cells assessed as cell viability at 50 uM measured after 72 hrs by sulforhodamine B assay; type: functional; settings: read-out: Activity
A549 [3] = experiment: Antiproliferative activity against human A549 cells assessed as reduction in cell viability measured after 72 hrs by sulforhodamine B assay; type: functional, cell-based; settings: A549, 72 h
NCI-H157 [4] = experiment: Antiproliferative activity against human NCI-H157 cells assessed as cell viability at 50 uM measured after 72 hrs by sulforhodamine B assay; type: functional; settings: read-out: Activity
U-251 = experiment: Antiproliferative activity against human U-251 cells assessed as reduction in cell viability incubated for 72 hrs by sulforhodamine B assay; type: functional, cell-based; settings: U-251, 72 h
U-87 MG = experiment: Antiproliferative activity against human U-87MG cells assessed as reduction in cell viability incubated for 72 hrs by sulforhodamine B assay; type: functional, cell-based, U-87MG ATCC
HL-60 = experiment: Antiproliferative activity against human HL-60 cells assessed as reduction in cell viability incubated for 72 hrs by sulforhodamine B assay; type: functional, cell-based; settings: HL-60, 72 h

Structure (SMILES) | IC50 (NCI-H157 [1]) [µM] | IC50 (A549 [3]) [µM] | IC50 (U-251) [µM] | IC50 (U-87 MG) [µM] | IC50 (HL-60) [µM] | viability at 50 µM (A549 [2]) [%] | viability at 50 µM (NCI-H157 [4]) [%]
CO[C@@]1(C)N(/C=C/c2ccccc2)C(=O)c2cc3c4ccccc4n(C)c3c(=O)n21 | 20.2 | 21.6 |  |  |  | < 50 | < 50
C[C@H]1Oc2c(c(O)c3c4c(c(O)ccc24)OC3=O)C1(C)C | 41.9 | 42.9 |  |  |  | < 50 | < 50
C=C[C@@]1(C)C=C(C)[C@@H]2[C@@H]3[C@H](Oc4ccc(cc4)C[C@]45NC(=O)/C(=C(/O)[C@H]31)[C@H]4[C@@H]1C(=O)C(C)=C3[C@H](C)[C@@H](C)O[C@@]3(O)[C@]1(O)O5)[C@@H]1[C@@H](C)C[C@@H](C)C[C@]12C | 22.3 | 12.3 |  |  |  | < 50 | < 50
CC(=O)c1nc(C(=O)NCCc2ccccc2)cc2c1[nH]c1ccccc12 | 19.4 | 48.2 |  |  |  | < 50 | < 50
CC1=C([C@H](C)[C@@H](C)OC=O)C(=O)C2=C(C1=O)[C@@H]1O[C@H](C)[C@@H](C)c3c(C)c(O)cc(c31)O2 [CITRININ H1] | 32.4 | 20.9 |  |  |  | < 50 | < 50
CC1=C[C@]2(C)[C@H](O)C[C@]34C[C@](O)(Cc5ccc(cc5)O[C@H]5[C@H]([C@H]2C3=O)[C@@H]1[C@]1(C)C[C@H](C)C[C@H](C)[C@@H]51)NC4=O |  |  |  |  | 14.9 |  | 
CO[C@@]1(C)N(/C=C/c2ccccc2)C(=O)c2cc3c([nH]c4ccccc43)c(=O)n21 | 15.1 | 12.7 |  |  |  | < 50 | < 50
Cc1cc(O)cc(Oc2cc(C)cc(O)c2)c1 [DIORCINOL] | 20.2 | 31.6 |  |  |  | < 50 | < 50
CO[C@@]12Cc3ccc(cc3)O[C@H]3[C@@H]4[C@H]5C(=O)[C@](C[C@@H](O)[C@@]5(C)C=C(C)[C@H]4[C@]4(C)C[C@H](C)C[C@H](C)[C@@H]34)(C1)C(=O)N2 | 17.8 | 13.2 |  |  |  | < 50 | < 50
CO[C@@]1(C)N(C[C@@H](O)c2ccccc2)C(=O)c2cc3c4ccccc4n(C)c3c(=O)n21 | 22.9 | 44.3 |  |  |  | < 50 | < 50
C=C[C@@]1(C)C=C(C)[C@@H]2[C@@H]3[C@H](Oc4ccc(cc4)C[C@]4(OC)C[C@H](C(=O)N4)C(=O)[C@H]31)[C@@H]1[C@@H](C)C[C@@H](C)C[C@]12C | 19.6 | 25.2 |  |  |  | < 50 | < 50
CC1=C[C@@]2(C)[C@@H]3C(=O)[C@]4(C[C@@H]2O)C[C@](O)(Cc2ccc(cc2)O[C@H]2[C@H]3[C@@H]1[C@]1(C)C[C@H](C)C[C@H](C)[C@@H]21)NC4=O |  |  |  |  | 7.4 |  | 
C=C[C@@]1(C)C=C(C)[C@@H]2[C@@H]3[C@H](Oc4ccc(cc4)C[C@@H]4C(=O)NC(=O)[C@@H]4C(=O)[C@H]31)[C@@H]1[C@@H](C)C[C@@H](C)C[C@]12C | 38.5 | 10.3 |  |  |  | < 50 | < 50
CC(C)[C@@H](C)/C=C/[C@@H](C)[C@H]1CC[C@H]2C3=CC=C4C[C@@H](O)CC[C@]4(C)[C@H]3CC[C@]12C [ERGOSTEROL] | 23.3 | 19.2 |  |  |  | < 50 | < 50
O=C1c2cc(O)cc(O)c2C(=O)c2c1cc1c(c2O)[C@@H]2CCO[C@@H]2O1 | 27 | 45.9 |  |  |  | < 50 | < 50
CC1=C[C@]2(C)C(=O)C[C@]34C[C@](O)(Cc5ccc(cc5)O[C@H]5[C@@H]([C@@H]1[C@]1(C)C[C@H](C)C[C@H](C)[C@@H]51)[C@H]2C3=O)NC4=O |  |  | 1.28 | 1.06 |  |  | 

Continued, in another order:

IC50 (NCI-H157 [1]) [µM] | IC50 (A549 [3]) [µM] | IC50 (U-251) [µM] | IC50 (U-87 MG) [µM] | IC50 (HL-60) [µM] | Structure (SMILES) | viability at 50 µM (A549 [2]) [%] | viability at 50 µM (NCI-H157 [4]) [%]
8.6 | 18.2 |  |  |  | CC(=O)c1nc(C(=O)NCCc2ccccc2)cc2c3ccccc3n(C)c12 | < 50 | < 50
9.8 | 12.9 |  |  |  | CO[C@@]1(C)N(CCc2ccccc2)C(=O)c2cc3c4ccccc4n(C)c3c(=O)n21 | < 50 | < 50
0.9 | 28.6 |  |  |  | O=c1ncc2ncn([C@@H]3O[C@@H](CO)[C@H](O)[C@@H]3O)c2[nH]1 | < 50 | < 50
6.5 | 7.3 | 22.8 | 12.4 |  | CC1=C[C@@]2(C)[C@@H]3C(=O)[C@]4(C[C@@H]2O)C[C@@](O)(Cc2ccc(cc2)O[C@H]2[C@H]3[C@@H]1[C@]1(C)C[C@H](C)C[C@H](C)[C@@H]21)NC4=O | < 50 | < 50
11 | 21.2 |  |  |  | Cn1c2ccccc2c2cc3n(c(=O)c21)[C@@](C)(O)N(CCc1ccccc1)C3=O | < 50 | < 50
7.2 | 10.6 |  |  |  | CO[C@@]1(C)N(/C=C\c2ccccc2)C(=O)c2cc3c4ccccc4n(C)c3c(=O)n21 | < 50 | < 50
8.1 | 38.4 |  |  |  | CO[C@@]1(C)N(/C=C/c2ccccc2)C(=O)C2=C[C@@]3(C(=O)N(C)c4ccccc43)C(=O)N21 | < 50 | < 50
2.7 | 5.7 |  |  |  | Cc1cc(O)c2c(c1)C(=O)c1cccc(O)c1C2=O [CHRYSOPHANOL] | < 50 | < 50
3 | 1.5 |  |  |  | COc1cc(O)c2c(c1)C(=O)c1cc(C)cc(O)c1C2=O [PHYSCION] | < 50 | < 50

Source: ChEMBL document CHEMBL4732255, “Evaluation of the antiproliferative activity of 106 marine microbial metabolites against human lung cancer cells and potential antiproliferative mechanism of purpuride G” (Bioorg Med Chem Lett, 2021)
